A word on the melting point: it is the temperature, or range, at which the solid turns liquid.

In data set [1] the target is T1, soluble guanylate cyclase (sGC) (Bos taurus, UniProt P16068+P19687).
T1 construct: The sGC employed had been isolated from bovine lung; from tissue; host or cells: bovine lung
T1 sequence (P19687 1-691): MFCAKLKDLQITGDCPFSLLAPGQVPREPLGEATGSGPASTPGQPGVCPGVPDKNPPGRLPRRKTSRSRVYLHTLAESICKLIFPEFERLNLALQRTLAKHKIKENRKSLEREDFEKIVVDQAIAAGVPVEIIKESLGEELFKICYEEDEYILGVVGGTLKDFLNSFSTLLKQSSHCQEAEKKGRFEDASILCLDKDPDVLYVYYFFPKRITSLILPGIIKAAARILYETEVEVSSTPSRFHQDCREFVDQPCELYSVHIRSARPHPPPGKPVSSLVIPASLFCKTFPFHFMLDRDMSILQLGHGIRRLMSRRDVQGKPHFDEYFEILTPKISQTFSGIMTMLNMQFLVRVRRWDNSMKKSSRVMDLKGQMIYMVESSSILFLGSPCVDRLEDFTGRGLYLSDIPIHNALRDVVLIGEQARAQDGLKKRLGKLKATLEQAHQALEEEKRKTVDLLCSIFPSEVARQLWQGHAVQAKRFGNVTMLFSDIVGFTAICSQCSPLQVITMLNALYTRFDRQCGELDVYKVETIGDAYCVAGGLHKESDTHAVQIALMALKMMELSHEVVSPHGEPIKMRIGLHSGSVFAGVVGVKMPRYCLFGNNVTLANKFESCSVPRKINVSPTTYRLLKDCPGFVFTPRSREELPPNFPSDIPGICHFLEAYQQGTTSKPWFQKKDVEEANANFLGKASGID
T1 sequence (P16068 1-619): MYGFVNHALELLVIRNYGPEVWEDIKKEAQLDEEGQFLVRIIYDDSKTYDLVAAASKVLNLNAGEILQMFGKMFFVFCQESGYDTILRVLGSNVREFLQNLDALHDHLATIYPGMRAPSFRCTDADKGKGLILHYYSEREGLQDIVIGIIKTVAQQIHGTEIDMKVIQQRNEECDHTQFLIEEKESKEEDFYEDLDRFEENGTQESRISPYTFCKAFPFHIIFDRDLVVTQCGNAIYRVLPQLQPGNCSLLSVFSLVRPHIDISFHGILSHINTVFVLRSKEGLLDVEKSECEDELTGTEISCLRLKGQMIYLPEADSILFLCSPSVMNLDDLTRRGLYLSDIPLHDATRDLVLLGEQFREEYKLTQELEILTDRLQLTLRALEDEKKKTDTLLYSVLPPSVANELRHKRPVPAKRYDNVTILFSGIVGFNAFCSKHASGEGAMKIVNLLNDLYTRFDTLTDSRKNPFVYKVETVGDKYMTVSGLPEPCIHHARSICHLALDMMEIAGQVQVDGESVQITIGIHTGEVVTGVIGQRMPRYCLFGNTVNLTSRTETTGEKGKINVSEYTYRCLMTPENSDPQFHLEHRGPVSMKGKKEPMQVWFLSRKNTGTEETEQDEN
Description: Activation of the soluble guanylate cyclase (cGMP enzyme immunoassay). Format: biochemical. The following applies: test substance 50 μM; sGC isolated from bovine lung; [cGMP] test substance/[cGMP] control (basal activity, solvent); 37° C., 15 to 20 minutes. The method, then: Activation of the Soluble Guanylate Cyclase
The activation of the soluble guanylate cyclase (sGC), which catalyzes the conversion of guanosine triphosphate (GTP) into cyclic guanosine monophosphate (cGMP) and pyrophosphate, by the compounds according to the invention was quantified with the aid of an enzyme immunoassay (EIA) from Amersham. For this, the test substances were first incubated with sGC in microtiter plates and then the amount of resulting cGMP was determined. The sGC employed had been isolated from bovine lung (see Methods in Enzymology, Volume 195, p. 377). The test solutions (100 μl per well) contained 50 mM triethanolamine (TEA) buffer (pH 7.5), 3 mM MgCl2, 3 mM reduced glutathione (GSH), 0.1 mM GTP, 1 mM 3-isobutyl-1-methylxanthine (IBMX), suitably diluted enzyme solution and the test substance or, in the case of the control experiments, solvent. The test substances were dissolved in dimethyl sulfoxide (DMSO) and the solution was diluted with DMSO/water such that the final concentration of test substance in the test solution was 50 μM. The DMSO concentration in the test solution was 5% (v/v). The reaction was started by addition of the sGC. The reaction mix was incubated at 37° C. for 15 to 20 minutes and then stopped by ice-cooling and addition of the stop reagent (50 mM EDTA, pH 8.0). An aliquot of 50 μl was taken and employed for the determination of the cGMP content using the acetylation protocol of the Amersham cGMP EIA kit. The absorption of the samples was measured at 450 nm (reference wavelength 620 nm) in a microtiter plate reader. The cGMP concentration was determined by means of a calibration curve which was obtained under the same experimental conditions. The activation of the sGC by a test substance is indicated as n-fold stimulation of the basal enzyme activity which was found in the control experiments (with solvent instead of test substance calculated according to the formula
n-fold stimulation=[cGMP]test substance/[cGMP]control).

As to `COc1cc2nc(-c3ccc(Cl)cc3)nc(NCCCO)c2cc1OC` [Example 32, 2-(4-Chlorophenyl)-4-(3-hydroxypropylamino)-6,7-dimethoxyquinazoline], the melting point is 187 °C. For the same molecule, the “n-fold Stimulation” value in data set [1] is 5 n-fold.

Take `COc1cc2nc(-c3ccc(Cl)cc3)nc(NCCOCCO)c2cc1OC` [Example 33, 2-(4-Chlorophenyl)-4-(2-(2-hydroxyethoxy)ethylamino)-6,7-dimethoxyquinazoline]: the melting point was found to be 188 °C. For the same molecule, in data set [1], the “n-fold Stimulation” value is 3 n-fold.

`COc1cc2nc(-c3ccc(Cl)cc3)nc(N(C)C)c2cc1OC` [Example 35, 2-(4-Chlorophenyl)-4-dimethylamino-6,7-dimethoxyquinazoline] came in with a melting point of 148 °C. Moreover, the “n-fold Stimulation” value in data set [1] is listed as 5 n-fold.

In the case of `COCCNc1nc(-c2ccc(Cl)cc2)nc2cc(OC)c(OC)cc12` [Example 36, 2-(4-Chlorophenyl)-4-(2-methoxyethylamino)-6,7-dimethoxyquinazoline], the melting point came to 178 °C. Also, the “n-fold Stimulation” value in data set [1] amounted to 5 n-fold.

In turn, `COc1cc2nc(-c3ccc(C)cc3)nc(NCCO)c2cc1OC` [Example 37, 2-(4-Methylphenyl)-4-(2-hydroxyethylamino)-6,7-dimethoxyquinazoline] returned a melting point of 217 °C. The “n-fold Stimulation” value in data set [1] turned out to be 4 n-fold.

Take `COc1cc2nc(-c3ccc(C)cc3)nc(NCc3cccnc3)c2cc1OC` [Example 38, 2-(4-Methylphenyl)-4-((3-pyridylmethyl)amino)-6,7-dimethoxyquinazoline]: the melting point came to 239 °C. Also, in data set [1], the “n-fold Stimulation” value turned out to be 7 n-fold.

`COc1cc2nc(-c3ccc(C)cc3)nc(N3CCN(C)CC3)c2cc1OC` [Example 39, 2-(4-Methylphenyl)-4-(4-methylpiperazino)-6,7-dimethoxyquinazoline] displayed a melting point of 166 °C. Besides, the “n-fold Stimulation” value in data set [1] worked out at 3 n-fold.

`COc1cc2nc(-c3ccc(C(F)(F)F)cc3)nc(NCCO)c2cc1OC` [Example 42, 2-(4-Trifluoromethylphenyl)-4-(2-hydroxyethylamino)-6,7-dimethoxyquinazoline] showed a melting point of 210 °C. The “n-fold Stimulation” value in data set [1] is 3 n-fold.

Consider `COc1cc2nc(-c3ccc(C(F)(F)F)cc3)nc(NCc3cccnc3)c2cc1OC` [Example 44, 2-(4-Trifluoromethylphenyl)-4-((3-pyridylmethyl)amino)-6,7-dimethoxyquinazoline], for which the melting point came out at 238 °C. Besides, the “n-fold Stimulation” value in data set [1] is 4 n-fold.

For `COc1cc2c(N3CCC(C(N)=O)CC3)nc(-c3ccc(Cl)cc3)nc2c(OC)c1OC` [Example 67, 2-(4-Chlorophenyl)-4-(4-aminocarbonylpiperidino)-6,7,8-trimethoxyquinazoline], the melting point is 215 °C. The “n-fold Stimulation” value in data set [1] is given as 7 n-fold.

`COc1cc2nc(-c3ccc(C)cc3)nc(N3CCN(c4ccccn4)CC3)c2cc1OC` [Example 79, 2-(4-Methylphenyl)-4-(4-(2-pyridyl)piperazino)-6,7-dimethoxyquinazoline] displayed a melting point of 191 °C. Moreover, the “n-fold Stimulation” value in data set [1] was 6 n-fold.

Take `COc1cc2nc(-c3ccc(Cl)cc3)nc(NC3CCCC3)c2cc1OC` [Example 92, 2-(4-Chlorophenyl)-4-cyclopentylamino-6,7-dimethoxyquinazoline]: the melting point was 231 °C. The “n-fold Stimulation” value in data set [1] was determined as 6 n-fold.

For the molecule `COc1cc2nc(-c3ccc(Cl)cc3)nc(N[C@H]3CC[C@H](O)CC3)c2cc1OC` [Example 93, 2-(4-Chlorophenyl)-4-(trans-4-hydroxycyclohexylamino)-6,7-dimethoxyquinazoline], the melting point is 261 °C. The “n-fold Stimulation” value in data set [1] is listed as 14 n-fold.

`COc1cc2c(N[C@H]3CC[C@H](O)CC3)nc(-c3ccc(Cl)cc3)nc2c(OC)c1OC` [Example 94, 2-(4-Chlorophenyl)-4-(trans-4-hydroxycyclohexylamino)-6,7,8-trimethoxyquinazoline] had a melting point of 199 °C. Moreover, the “n-fold Stimulation” value in data set [1] is reported as 13 n-fold.

On to `COc1cc2nc(-c3ccc(C)cc3)nc(N[C@H]3CC[C@H](O)CC3)c2cc1OC` [Example 96, 2-(4-Methylphenyl)-4-(trans-4-hydroxycyclohexylamino)-6,7-dimethoxyquinazoline], for which the melting point worked out at 243 °C. In addition, in data set [1], the “n-fold Stimulation” value came to 16 n-fold.

In turn, `COc1cc2nc(-c3ccc(C)cc3)nc(NC3CCCC3)c2cc1OC` [Example 98, 2-(4-Methylphenyl)-4-cyclopentylamino-6,7-dimethoxyquinazoline] gave a melting point of 101 °C. The “n-fold Stimulation” value in data set [1] worked out at 8 n-fold.

Source of the values: patent publication US6613772B1, “Substituted 2-aryl-4-amino-chinazolines, method for the production and use thereof as medicaments” (Aventis Pharma Deutschland GmbH, priority 1997, dated 2003).
